Reference: PMC7555970, “Design, Synthesis and Biological Evaluation of Biphenylglyoxamide-Based Small Molecular Antimicrobial Peptide Mimics as Antibacterial Agents” (International Journal of Molecular Sciences, 2020)
≈ marks a conversion by molar mass, not a printed value. Read-outs that look alike come from different tables or passages of the source.

Key:
Gram-negative bacteria = test system: Gram-negative bacteria; parameters: method as in doi:10.1002/slct.201700336, PMID 28203673; conditions: previously reported ref 43, 44; cited from earlier work
S. aureus (SA38) [1] = conditions: cited from earlier work
P. aeruginosa (PA01) [2] = experiment: Minimum inhibitory concentration (MIC) assay against P. aeruginosa; assay type: cell-based; conditions: Pseudomonas aeruginosa
Method: (§1) The antimicrobial activity of the compounds was evaluated by MIC assay using the procedure described by Clinical and Laboratory Standards Institute (CLSI). A single colony of bacteria was cultured overnight in trypticase soy broth (TSB; Oxoid, Basingstoke, UK) at 37 °C with shaking. The resulting bacterial culture was collected by centrifugation and resuspended in TSB twice. The optical density (OD) of the resulting culture was adjusted to OD660 = 0.1 in TSB (which is equivalent to 10^8 colony forming unit (CFU)/mL bacteria). It was further diluted to 10^6 CFU/mL in TSB. 100 µL of the bacterial solution was then added to wells of a 96-well plate (Costar; Sigma-Aldrich, St Louis, MO, USA) containing 100 µL serially diluted peptide mimic, with final concentration ranging from 1 to 250 µM. Wells with bacteria but no compound were used as negative control while wells with only media were set as blank. The plates were then wrapped with parafilm to prevent evaporation and incubated with shaking at 120 rpm at 37 °C for 18–24 h, and the data were recorded by measuring the OD value at 660 nm using a FLUOstar Omega (BMG Labtech, Mornington, Victoria, Australia) microplate reader. […] Each experiment was performed in triplicate and was repeated in three independent experiments.

[3] = test system: MRC-5 normal human lung fibroblasts; experiment: MTT toxicity assay; assay type: cell-based; conditions: Homo sapiens, MRC5, 72 h, 72 h drug incubation, read-out: IC50 against MRC-5 normal human lung fibroblasts
Method: The toxicity of the compounds was measured using an MTT (3-(4,5-dimethylthiazol-2-yl)-2,5-diphenyltetrazolium bromide) (Sigma Aldrich, St Louis, MO, USA) colorimetric assay against normal human lung fibroblasts MRC-5 cells. The cells were cultured in minimal essential medium (MEM; Sigma Aldrich, St Louis, MO, USA) containing 10% foetal bovine serum (FBS). The cells were maintained at 37 °C in 5% CO2 as an adherent monolayer and was passaged upon reaching confluence by standard cell culture techniques. MRC-5 cells were seeded at 5000 cells/well in 96-well plates to ensure full confluence (quiescence) and left overnight to adhere to the plate wells. The adherent cells were treated with 1–500 µM of compounds by dissolving in DMSO and serially diluting with media. The final concentration of DMSO was 0.5% (v/v). After 72 h drug incubation, […] stock MTT solution (5 mg/mL) was added and the cells were incubated for another 3.5–4 h. MTT solution-containing media was carefully aspirated without displacing the purple crystals from the bottom and […] acid-isopropanol was added to all wells and mixed slowly by shaking with an orbital shaker to dissolve the dark blue crystals. The metabolic activity was detected by spectrophotometric analysis by assessing the read absorbance (590/620 nm) on an EnSight plate reader (PerkinElmer, Waltham, MA, USA) and cell viability was expressed as a percentage of untreated control cells. The determination of IC50 values was performed using GraphPad Prism 6 (GraphPad, San Diego, CA, USA). Each experiment was performed in triplicate and was repeated in three independent experiments.

S. aureus (SA38) [4] = experiment: Minimum inhibitory concentration (MIC) assay against S. aureus; assay type: cell-based, Staphylococcus aureus; conditions: Staphylococcus aureus
Method: as §1

[5] = Tethered bilayer lipid membranes (tBLMs) assay, zwitterionic membrane; conditions: for changes of membrane conduction: zwitterionic membrane, higher concentrations (1–100 μM); for shift in membrane conductance: zwitterionic POPC tBLMs, concentrations as low as 100 nM; for membrane capacitance: zwitterionic tBLMs, saturating concentrations
Method: (§2) Changes in membrane conduction and capacitance were measured using tethered bilayer lipid membranes (tBLMs) in association with AC electrical impedance spectroscopy techniques. Sparsely tethered tBLMs were prepared using a zwitterionic 1-palmitoyl-2-oleoyl-glycero-3-phosphocholine (POPC) (Avanti Lipids, USA) or a mixture of 30% palmitoyl-oleoyl-phosphatidylglycerol (POPG) (Avanti Lipids, USA) lipids with 70% POPC in order to create a negatively charged tBLM [66, 67]. To do this, gold-patterned polycarbonate slides were coated with tethered benzyl-disulfide (tetra-ethyleneglycol) n = 2 C20-phytanyl tethers:benzyl-disulfide-tetra-ethyleneglycol-OH spacers in the ratio of 1:10 (SDx Tethered Membranes Pty Ltd., Australia). A 3 mM solution of a mobile lipid phase POPC, or a 3 mM solution of mobile phase POPC/POPG (70:30), (Avanti Lipids, USA) in 100% ethanol was then incubated with the tethering chemistries. Lipids were left to incubate with the tethering chemistries for 2 min before being washed with 3 × […] of phosphate-buffered saline (PBS). Prior to the addition of the compounds, membrane stability was confirmed by 5 × 100 µL washes of the PBS vehicle. AC electrical impedance spectrometry (EIS) was then used to monitor any changes in membrane impedances as a result of adding the test compounds in increasing concentrations.
(§3) For EIS measures, a 50 mV peak-to-peak AC excitation from 0.1 to 2000 Hz with four steps per decade were recorded using a TethaPod™ operated with TethaQuick™ software (SDx Tethered Membranes Pty Ltd., Australia). The data were fitted to an equivalent circuit consisting of a Constant Phase Element (CPE), to represent the imperfect capacitance of the gold tethering electrode, in series with a Resistor/Capacitor network to represent the lipid bilayer membrane. Fitting of the phase and impedance data to the equivalent circuit was completed with a proprietary adaptation of a Lev Mar fitting routine. To account for variations in basal membrane conditions, data are normalised to a baseline conduction and capacitance values directly before the addition of each compound.

[6] = test system: established S. aureus biofilms; experiment: Biofilm disruption assay (crystal violet staining), S. aureus; assay type: cell-based, Staphylococcus aureus; conditions: 24 h treatment
Method: (§4) Bacterial cultures (S. aureus and E. coli) were grown in Muller Hinton broth (MHB; Oxoid, Basingstoke, UK) media overnight at 37 °C with shaking at 120 rpm. Cultures were diluted (1:20) in MHB medium and 200 µL aliquots were dispensed to wells in a flat bottom 96-well plate (Costar; Sigma-Aldrich, St Louis, MO, USA). Biofilm was then grown in the 96-well plate at 37 °C overnight. After that, loosely bound cells were washed away with 1x phosphate-buffered saline (PBS) and cultures were then supplemented with different concentrations of test compounds dissolved in DMSO and incubated for a further 24 h with shaking at 120 rpm. Biofilms adhered on the plate substratum were quantified using crystal violet staining as described previously. The experiment was performed in triplicate.

E. coli (K12) [7] = experiment: Minimum inhibitory concentration (MIC) assay against E. coli; assay type: cell-based; conditions: Escherichia coli
Method: as §1

[8] = Tethered bilayer lipid membranes (tBLMs) assay, negatively charged membrane; conditions: for changes of membrane conduction: negatively charged membranes, higher concentrations (1–100 μM), compared to zwitterionic; for changes in membrane conductance: 30% POPG membranes, concentrations <1 μM; for membrane capacitance: negatively charged tBLMs, saturating concentrations
Method: as §2, §3

P. aeruginosa (PA01) [9] = conditions: cited from earlier work
E. coli (K12) [10] = conditions: cited from earlier work
[11] = test system: preformed E. coli biofilm; experiment: Biofilm disruption assay (crystal violet staining), E. coli; assay type: cell-based, Escherichia coli; conditions: 4× MIC (64 μM), 24 h treatment
Method: as §4

S. aureus = experiment: Time-kill kinetic / cell viability count assay; assay type: cell-based, Staphylococcus aureus
Method: The number of viable cells was confirmed by serially diluting aliquots of bacteria in D/E neutralizing broth (Remel, Lenexa, KS, USA) and plating onto Tryptic Soy Agar (Oxoid, Basingstoke, UK) containing phosphatidylcholine (0.7 g/L) and Tween 80 (5 mL/L). The plates were incubated at 37 °C overnight and numbers of live bacteria were enumerated and expressed as CFU/mL. The experiment was performed in triplicate.

[12] = test system: cytoplasmic membrane of S. aureus; experiment: Cytoplasmic membrane permeability (diSC3-5 dye release) assay; assay type: cell-based, Staphylococcus aureus; conditions: 1× and 2× MIC
Method: Bacterial cytoplasmic membrane permeability was determined using membrane potential-sensitive dye diSC3–5 (3,3′-dipropylthiadicarbocyanine iodide), which penetrates inside bacterial cells depending on the membrane potential gradient of the cytoplasmic membrane. The procedure of this assay follows the method previously described by Wu et al. with slight modifications. Bacteria were grown in MHB to mid-log phase by incubating with shaking at 37 °C for […]. Following incubation, bacteria were washed with 5 mM HEPES containing 20 mM glucose at pH 7.2 and resuspended in the same buffer to an OD600 0.05–0.06 (yielding a final concentration of 10^7 CFU/mL). The dye diSC3–5 was added at 4 μM to the bacterial suspension. The suspensions were incubated at room temperature for 1 h in darkness for maximum dye take-up by the bacterial cells. 100 mM KCl was then added to balance the K^+ outside and inside the bacterial cell. 100 μL of bacterial suspension was added in a 96-well microtiter plate and with equal volume of antimicrobial compounds. DMSO (10%) was set as a positive control while dye and only bacterial cells were set as negative control. Fluorescence due to release of dye was measured with a luminescence spectrophotometer at 3 min intervals at an excitation wavelength of 621 nm and an emission wavelength of 670 nm.

[13] = any tested concentration (1×, 2× and 4× MIC)
[14] = no antibacterial activity at the highest concentration tested (250 μM) ref 43
[15] = previously reported values ref 51

Row | Molecule | MIC (P. aeruginosa (PA01) [2]) | IC50 [3] | MIC (S. aureus (SA38) [4]) | changes of membrane conduction [5] | MIC (E. coli (K12) [7]) | changes of membrane conduction [8] | increase in diSC3-5 fluorescence intensity (cytoplasmic membrane disruption) [12] | disruption of preformed S. aureus biofilms ([6]; 4× MIC (32 μM)) | further results
1 | N=C(N)NCCCNC(=O)C(=O)c1cc(Br)ccc1NC(=O)c1ccc2ccccc2c1 [Compound 5] |  |  |  |  |  |  |  |  | antibacterial activity against Gram-negative bacteria (Gram-negative bacteria): no antibacterial activity; MIC against S. aureus (S. aureus (SA38) [1]; previously reported ref 44): 12 µM (≈ 5.96 µg/mL)
2 | CCCCCCCCS(=O)(=O)Nc1ccc(-c2ccccc2)cc1C(=O)C(=O)NCCCNC(=N)N.Cl [Compound 22a, N-(3-Guanidinopropyl)-2-(4-(octylsulfonamido)-[1,1’-biphenyl]-3-yl)-2-oxoacetamide hydrochloride] | 63 µM | 75.5 µM | 8 µM | more pronounced | 63 µM | lower |  |  | disruption of preformed S. aureus biofilms [6, 13]: failed to disrupt any
3 | CCCCCCCCS(=O)(=O)Nc1ccccc1C(=O)C(=O)NCCC[N+](C)(C)C [Compound 4a] |  |  |  |  |  |  |  |  | MIC against P. aeruginosa (P. aeruginosa (PA01) [9]; [14]): > 250 µM; MIC against S. aureus (S. aureus (SA38) [1]; previously synthesised N-sulfonylphenylglyoxamide iodide salts ref 43): 250 µM; MIC against E. coli (E. coli (K12) [10]; [14]): > 250 µM
4 | CCCCCCCCS(=O)(=O)Nc1ccc(-c2ccc(Cl)cc2)cc1C(=O)C(=O)NCCC[N+](C)(C)C.[I-] [Compound 15c, 3-(2-(4’-Chloro-4-(octylsulfonamido)-[1,1’-biphenyl]-3-yl)-2-oxoacetamido)-N,N,N-trimethylpropan-1-aminium iodide] | 63 µM | 95.8 µM | 8 µM | more pronounced | 16 µM | lower | largest increase in fluorescence intensity | 35% | disruption of preformed E. coli biofilm [11]: insignificant amount; reduction in bacterial numbers (S. aureus; 1× MIC): 1 log; reduction in bacterial numbers (S. aureus; 2× MIC): 2 log; shift in membrane conductance [5]: 2.5 ×; membrane capacitance [5]: large increase; changes in membrane conductance [8]: notably absent; membrane capacitance [8]: large increase
5 | CCCCCCCCS(=O)(=O)Nc1ccc(-c2ccc3ccccc3c2)cc1C(=O)C(=O)NCCC[N+](C)(C)C.[I-] [Compound 15d, N,N,N-Trimethyl-3-(2-(5-(naphthalen-2-yl)-2-(octylsulfonamido)phenyl)-2-oxoacetamido)propan-1-aminium iodide] | 250 µM | 112 µM | 8 µM | more pronounced | 63 µM | lower |  |  | shift in membrane conductance [5]: 2.5 ×; membrane capacitance [5]: large increase; disruption of preformed S. aureus biofilms [6, 13]: failed to disrupt any; changes in membrane conductance [8]: notably absent; membrane capacitance [8]: large increase
6 | pexiganan [pexiganan (MSI-78)] |  |  |  |  |  |  |  |  | MIC P. aeruginosa (P. aeruginosa (PA01) [9]; [15]): 3.2 to 6.5 µM; MIC S. aureus (S. aureus (SA38) [1]; [15]): 3.2 to 6.5 µM; MIC E. coli (E. coli (K12) [10]; [15]): 3.2 to 6.5 µM
7 | CCCCCCCCS(=O)(=O)Nc1ccc(-c2ccc3ccccc3c2)cc1C(=O)C(=O)NCCCNC(=N)N.Cl [Compound 22d, N-(3-Guanidinopropyl)-2-(5-(naphthalen-2-yl)-2-(octylsulfonamido)phenyl)-2-oxoacetamide hydrochloride] | > 250 µM | 49.5 µM | 8 µM |  | > 250 µM |  | modest | 50% | reduction in bacterial numbers (S. aureus; 1× and 2× MIC): less than 1 log
8 | CCCCCCCCS(=O)(=O)Nc1ccc(-c2ccc(F)cc2)cc1C(=O)C(=O)NCCCNC(=N)N.Cl [Compound 22b, 2-(4’-Fluoro-4-(octylsulfonamido)-[1,1’-biphenyl]-3-yl)-N-(3-guanidinopropyl)-2-oxoacetamide hydrochloride] | 63 µM | 76 µM | 8 µM |  | 16 µM |  | modest | 39% | disruption of preformed E. coli biofilm [11]: insignificant amount; reduction in bacterial numbers (S. aureus; 1× and 2× MIC): less than 1 log
